Patent US20250163062A1, “WNT PATHWAY INHIBITOR COMPOUNDS” (ADLAI NORTYE BIOPHARMA CO., LTD., priority 2022, published 2025)

Experiments:
Assay type in all cases: cell-based
HepG2 = test: Proliferation inhibition test, Wnt mutant cell line HepG2; conditions: Homo sapiens, HepG2, 96 h, HepG2, 96 h culture with compound; read-out: Antiproliferation IC50 HepG2
Description: (§1) The cell lines used in the experiment are Colo205, H929, HepG2, and DU4475, which have sustained activation of the Wnt pathway and whose proliferation is Wnt pathway-dependent. On the other hand, RKO cell line, in which normally the Wnt pathway is not activated and whose proliferation is not Wnt pathway-dependent, was used as a control cell line. This was done to determine whether the inhibitory effect of the compound of the present disclosure on Wnt-dependent proliferation is due to other nonspecific toxicity.
(§2) Colo205, H929, DU4475, HepG2 and RKO cell lines cultured in their respective culture media were treated in the logarithmic growth phase, and the cells were collected and prepared into a uniform cell suspension of known concentration, and then added to a 96-well cell culture plate so that each well contained 1000-4000 cells. Place in a 5% CO2 cell culture incubator and culture at 37° C. for 20-24 h. On the second day, add the completely dissolved, 3-fold gradient dilution compound to each cell culture well to make the final maximum concentration in the cell culture well 10 uM, and continue to culture for 96 h. This test uses Promega's cell activity detection test for detection. The more the cells proliferate, the stronger the final signal intensity. The detection instrument is SpectraMax, full wavelength mode. The wells with only DMSO added were used as positive control wells, and the wells without cells inoculated were used as negative control wells.

DU4475 = test: Proliferation inhibition test, Wnt mutant cell line DU4475; conditions: Homo sapiens, DU-4475, 96 h, DU4475, 96 h culture with compound; read-out: Antiproliferation IC50 DU4475
Description: as §1, §2

RKO = test: Proliferation inhibition test, non-Wnt mutant control cell line RKO; conditions: Homo sapiens; RKO (Wnt pathway not activated, control), 96 h culture, maximum concentration 10 uM; read-out: Antiproliferation IC50 RKO
Description: as §1, §2

[1] = system: Colo205-LUC-TCF/LEF reporter gene; test: Colo205-LUC-TCF/LEF M1 reporter cell line luciferase inhibition; conditions: 4 h, 4 hours incubation, firefly luciferase signal
Procedure: Colo205 cell line (Cell Bank of Chinese Academy of Sciences, Cat #TCHul02) was purchased from the Cell Bank of Chinese Academy of Sciences. After expansion and subculture, during the exponential growth phase, luciferase reporter plasmid (Promega) driven by TCF/LEF transcription factor was transfected by lipo3000 liposome transfection. The plasmid carries a resistance gene for resistance screening. Transfection was carried out in 10 cm culture dishes using conventional complete medium without resistance. After 2 days, the medium with resistance was replaced, and the culture was continued. After that, the medium with resistance was replaced every 2 days, and the suspended cells were discarded. The original medium was centrifuged to remove cells and debris and retained as an adaptive medium. When the cells covered the culture dish, the cells were digested, counted, and passaged in a 96-well plate, so that the average number of cells contained in each well was 1.5/well, and the adaptive medium was used for passage. The rest of the cells were frozen. After passage, culture for 4 hours to allow the cells to adhere to the wall, and then observe the number of cells in each well under a microscope. Wells with only 1 cell per well were labeled as monoclonal wells. Afterwards, normal culture was performed, and the culture medium was replaced every 2 days, and observed. There are wells where the monoclonal cells continue to grow in the early stage, and they are labeled twice, and can be replaced with normal medium with resistance. When a monoclonal well was overgrown with a 96-well plate, it is digested and passaged to a 24-well culture plate. After the 24-well plate is overgrown, it is passaged to a 96-well plate and a 6-well plate. The cells in a 96-well plate are at least 6 wells, of which 3 wells were added with known Wnt inhibitors, and the other 3 wells were not treated. After 24 hours, the cells in the 96-well plate were added with a fluorescence detection reagent to detect the fluorescence intensity. Cell lines with fluorescent expression when not treated and decreased fluorescent light after inhibition were selected and further cultured. The Colo205-LUC-TCF/LEF-M1 cell line is one of the cell lines screened above. Its growth curve, cell shape, and cell growth state are similar to those of the original Colo205 cells, and the ratio of the fluorescent signals of the inhibitor-treated and untreated cells is the largest among all cell lines, and the ratio can reach 4-5 times when inhibited at 4 hours, which was completely suitable for the screening of Wnt inhibitors in the later stage.
The Colo205-LUC-TCF/LEF M1 cell line is a reporter tool cell stably transfected with the pGL4.49-LUC2-TCF/LEF vector. The β-catenin Wnt pathway is continuously activated. After adding the inhibitor, the Wnt pathway is inhibited. The expression of firefly luciferase regulated by the TCF/LEF cis-element decreased, and after adding the detection substrate, the detected light signal decreased accordingly, so as to detect the inhibitory effect of the compound.
To a 96-well cell culture plate, add 100 uL of the compound with a maximum concentration of 20 uM to each well, and make a 3-fold serial dilution of the compound concentration. Then 10,000 colo205 cells stably transfected with the reporter gene and 100 uL medium were inoculated into each well, and corresponding positive and negative control wells were made at the same time. Put the cells in a 5% CO2 incubator and incubate at 37° C. for 4 hours. After 4 hours, remove the culture medium, add 100 μL of reagent (Promega) containing the corresponding firefly luciferase substrate to each well, and measure the activity of luciferase reporter gene. Luminescence intensity was read with SpectraMax in full wavelength mode. […]

Colo205 = test: Proliferation inhibition test, Wnt mutant cell line Colo205; conditions: Homo sapiens, COLO 205, 96 h, Colo205, 96 h culture with compound; read-out: Antiproliferation IC50 Colo205
Description: as §1, §2

H929 = test: Proliferation inhibition test, Wnt mutant cell line H929; conditions: Homo sapiens, NCI-H929, 96 h, H929, 96 h culture with compound; read-out: Antiproliferation IC50 H929
Description: as §1, §2

Cc1nc(C(F)(F)F)ncc1Oc1ncc(CNc2nc3c4c(n2)N(C)[C@@](C)(CO)C(=O)N4CCC3)cc1F [Compound 28]
IC50 (HepG2): 61.3 nM | IC50 (DU4475): 16.8 nM | IC50 (RKO): > 10000 nM | IC50 [1]: 27.4 nM | IC50 (Colo205): 25.7 nM | IC50 (H929): 126 nM
